What all share (experiment): NCI tumour cell line growth inhibition, 48 h
For experiment [1], the system named is DMS 114 small cell lung.
Experiment [2] concerns DMS 273 small cell lung.
Experiment [3] deals with HOP-18 NSCLC.
Experiment [4] concerns KM20L2 colon.
Experiment [5] relates to LXFL 529 NSCLC.
The test system of experiment [6] is RXF-631 renal.
Experiment [7] has as its system SNB-78 CNS.
The subject of experiment [8] is XF 498 CNS.
In experiment [9] the test system is MDA-N.
The test system of experiment [10] is P388 leukemia.
Experiment [11] relates to P388/ADR leukemia.
Experiment [12] has as its system SN12K1 renal.

SMILES strings stand for the structures.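 Results reflect a 48-hour exposure of cells in 96-well plates to compound at five concentrations. TGI marks complete inhibition of growth.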

With `COc1cc(/C=N\O[Si](C)(C)C(C)(C)C)ccc1O[Si](C)(C)C(C)(C)C`, the TGI in [1] is 83.4 µM; in [2] it was more than 100 µM; in [3], more than 100 µM; in [4] it was more than 100 µM; in experiment [5], more than 100 µM; in experiment [6] it was 71.6 µM. Further, the TGI in experiment [7] and in experiment [8] was more than 100 µM each time.

As for `COc1cc(-c2nnc3n2NC=C(C(=O)O)S3)cc(OC)c1OC`, the TGI was more than 70 µM in experiment [1]; more than 82.9 µM in [2]; more than 100 µM in [3]; more than 100 µM in experiment [4]; more than 100 µM in experiment [5]; more than 100 µM in experiment [6]. For the same compound, the TGI in experiment [7] and in experiment [8] was more than 100 µM throughout.

As to `CCOC(=O)C(C)(c1c(C)[nH]c2ccccc12)c1c(C)[nH]c2ccccc12`, the TGI amounted to 41.6 µM in experiment [1]; 31 µM in experiment [2]; 31 µM in experiment [4]; 77.3 µM in experiment [5]; 49.2 µM in experiment [7]; 39.4 µM in [8].

`CS(=O)(=O)CS(=O)(=O)OCCCl`: the TGI is 339 µM in [1]; 995 µM in experiment [2]; 1380 µM in experiment [3]; 1240 µM in experiment [4]; 470 µM in experiment [9]; 306 µM in experiment [10]. Besides, the figures for the TGI in experiment [11], in experiment [12] and in experiment [7] were 447 µM, 963 µM and 420 µM, respectively.

In the case of `NC(CCc1ncc(C(=O)O)s1)C(=O)O` (configuration not stated), the TGI in [1], in experiment [3], in [5], in experiment [6] and in experiment [7] was more than 100 µM each time.

For the compound `Cc1c2c(C(N)=O)nccc2c(C)c2c1c1ccccc1n2Cc1ccccc1`, in [9], the TGI was more than 100 µM.

Consider `Cc1ccc(C)c(N2C(=O)C(=O)C(c3nc4ccccc4o3)/C(=N/N)C2=O)c1` (configuration not stated), for which the TGI in experiment [1], in experiment [2], in experiment [3], in experiment [4], in experiment [5] and in experiment [7] was more than 100 µM in each case. In experiment [8], the TGI was more than 100 µM.

Consider `CC1CCC(C(C)(C)c2ccccc2)C(=O)C1` (configuration not stated), for which the TGI in experiment [1], in experiment [2], in experiment [3], in experiment [4], in experiment [5] and in experiment [7] was more than 100 µM each time. In addition, the TGI in [8] is more than 100 µM.

As to `NC(=O)c1cn(Cc2ccccc2)c(=O)n1Cc1ccccc1`, the TGI in experiment [2], in [3], in experiment [4], in experiment [5], in experiment [7] and in [8] was more than 100 µM each time.

Take `CCOc1ccc(N=Cc2c3ccccc3nc3ccccc23)cc1`: the TGI in experiment [1], in experiment [2], in experiment [3], in experiment [4], in [5] and in experiment [6] was more than 100 µM throughout. In addition, the TGI in experiment [7] and in [8] was more than 100 µM in each case.

With `O=C1c2ccc3c4ccccc4n(-c4ccccc4)c3c2C(=O)N1c1ccc(Cl)cc1`, the TGI in [1], in experiment [2], in experiment [4], in experiment [5], in [6] and in experiment [7] was more than 100 µM throughout.

`Cc1ccc2occ/c(=N\Nc3ccccc3)c2c1`: the TGI in experiment [9] was more than 100 µM.

For `CCCCCCCCCCCCCCCCCCC1=C(O)C(=O)C=C(OC)C1=O`, the TGI was 61.8 µM in experiment [1]; more than 100 µM in experiment [2]; more than 100 µM in experiment [3]; more than 100 µM in experiment [4]; more than 100 µM in experiment [5]; more than 100 µM in [7]. Further, in experiment [8], the TGI is more than 100 µM.

On to `CC12CCC(=O)N1c1cccnc1N2` (configuration not stated), for which the TGI in [1], in experiment [4], in experiment [5], in experiment [7] and in [8] was more than 100 µM throughout.

As to `CCOC(=O)C1=C(Nc2ccc(Br)cc2)OCC1=O`, the TGI in experiment [2], in experiment [3], in [4], in experiment [5] and in experiment [7] was more than 100 µM in each case.

Turning to `O=C1C=CC(=CC=C2C=CN(CCCCCCCCCCC(=O)NCCCCCCCCCCCC(=O)O)C=C2)C=C1`, the TGI in experiment [1], in [2], in experiment [4], in experiment [5], in [6] and in experiment [7] was more than 100 µM throughout. In experiment [8], the TGI was more than 100 µM.

Compound `C=C1C(=O)OC2C1CC(OC(C)=O)/C(C)=C/CCC1(C)OC21` (configuration not stated) had a TGI in experiment [9] of more than 100 µM.

In the case of `COc1cc(/C=C/C(=O)Oc2ccccc2)ccc1C(=O)O/C=C/c1ccccc1`, the TGI in [1], in experiment [2], in experiment [3], in experiment [4], in experiment [9] and in experiment [10] was more than 100 µM throughout. Besides, the TGI in experiment [11], in [12], in [7] and in experiment [8] was more than 100 µM throughout.

Source of the values: PubChem BioAssay (NCI).
